Source: US8993714B2, “Streptavidin macromolecular adaptor and complexes thereof” (Imiplex LLC, priority 2007, dated 2015)

Tests used:
[1] = Stability on 4-12% Bis-TRIS MOPS SDS PAGE after heating at 70° C. with reducing agent and SDS; assay type: physicochemical; conditions: 70° C. for 10 minutes with reducing agent and SDS
Method: We established optimal conditions for complex formation. One issue involved the existence of stable dimeric, trimeric and higher aggregates of streptavidin in most preparations (Sano & Cantor 1990b; Kurzban et al. 1991; Waner et al. 2004). We found the aggregates of liganded and unliganded streptavidin stable to heating at 70° C. and the liganded streptavidin aggregates also stable in SDS PAGE running buffers (FIG. 33). We exploited these features in a gel assay to help assess complexation in both denaturing and native gels (see FIG. 33). The left and middle panels of FIG. 33 show complexes of SAMA and streptavidin analyzed on 4-12% Bis-TRIS gels with 3-(N-Morpholino)propanesulfonic acid (MOPS) SDS running buffer. […] Prior to loading, samples were heated at 70° C. for 10 minutes together with reducing agent and SDS. Lanes are numbered on the top and the sample identity (SAMA and linking reagent) given below. Mark12 MW standards (Invitrogen) are in Lane 1. […] Schematics on the left indicate the electrophoretic mobilities of control molecules including the streptavidin monomer, derivatized and underivatized SAMA monomers, the streptavidin:biotin tetramer and higher order aggregates of the streptavidin:biotin tetramer. Brackets and schematics on the right indicate probable electrophoretic mobilities of SAMA:SAV complexes. […]

[2] = target: T1, streptavidin (Streptomyces avidinii, UniProt P22629); assay: Ligand binding to the streptavidin biotin binding site (dissociation constant)
T1 sequence (P22629 25-183): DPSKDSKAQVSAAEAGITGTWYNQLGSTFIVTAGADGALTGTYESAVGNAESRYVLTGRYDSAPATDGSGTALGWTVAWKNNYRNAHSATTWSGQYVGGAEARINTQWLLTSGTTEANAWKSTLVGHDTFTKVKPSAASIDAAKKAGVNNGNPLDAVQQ
From the text: A strut can be formed from streptavidin (FIG. 1), a tetrameric protein of 60 kiloDalton molecular weight secreted by the bacterium Streptomyces avidinii. […] Part d designates two of the four bound biotins on the same “side” of the tetramer in space filling representation. Part e is a representation of the streptavidin tetramer surface showing overall molecular shape.
For example, the first and/or the second moiety can be an iminobiotin group. […] However, at pH values of less than or equal to about 4, the imino group on iminobiotin becomes charged, so that it is displaced from the streptavidin binding site. Thus, a structure can be temporarily formed using an iminobiotin-functionalized crosslinking reagent. […] Then, by lowering the pH below 4, the iminobiotin bonds can release, and components of the temporary structure can be washed away. Thus, a bifunctional crosslinking reagent with an iminobiotin group as the first and/or second moiety can be used to form a temporary scaffold, which assists in the construction of a permanent nanostructure.
More generally, the dyes can be used to monitor the assembly of streptavidin-linked nanostructures.
MALDI or ESI MS can be used to characterize the species. […] FIGS. 34c and 34d show the structures of the 1:1 and 1:2 Azido-ATP-linked SAV:SAMA complexes. Spectroscopic methods can be used to monitor SAV:SAMA complex formation using a dye displacement approach and using DLS alone or combined with static light scattering.

[3] = target: T1, streptavidin; conditions: neutral pH; read-out: iminobiotin dissociation constant; cited from earlier work

In the case of “streptavidin: tetrameric protein of 60 kiloDalton secreted by Streptomyces avidinii with 4 biotin binding sites”, the “folded state under gel conditions” value [1] is reported as “denatured”.

For `O=C(O)c1ccccc1N=Nc1ccc(O)cc1` [HABA, 4′-hydroxyazobenzene-2-carboxylic acid], the “binds more weakly to streptavidin than biotin” value [2] was 8 orders of magnitude and the “binds more weakly to streptavidin than iminobiotin” value [2] was 5 orders of magnitude.

For `N=C1N[C@H]2[C@H](CS[C@H]2CCCCC(=O)O)N1` [iminobiotin], the “iminobiotin dissociation constant relative to biotin-streptavidin dissociation constant, orders of magnitude greater” value [2] is listed as 3 orders of magnitude and the Kd [3] is listed as ~0.01 nM.
